One block for each compound: values may come before it.
Experiments:
[1] = Relative oral, non-gastric retention bioavailability of irinotecan and SN-38 derived from literature; type: in vivo; details: human, blood (bloodstream); oral non-gastric retention relative to intravenous; read-out: Calculated Relative Bioavailabilty of Lactone [formula]
Text: Quantity “A” is the total area under the bloodstream concentration curve over time.
ATotal=ALactone+ACarboxylate is the sum of the areas under the curve of lactone and carboxylate forms of the species.

[2] = cited from earlier work
topoisomerase I = biological target: T1, topoisomerase I (Homo sapiens, UniProt P11387); details: cited from earlier work
T1 sequence (P11387 1-765): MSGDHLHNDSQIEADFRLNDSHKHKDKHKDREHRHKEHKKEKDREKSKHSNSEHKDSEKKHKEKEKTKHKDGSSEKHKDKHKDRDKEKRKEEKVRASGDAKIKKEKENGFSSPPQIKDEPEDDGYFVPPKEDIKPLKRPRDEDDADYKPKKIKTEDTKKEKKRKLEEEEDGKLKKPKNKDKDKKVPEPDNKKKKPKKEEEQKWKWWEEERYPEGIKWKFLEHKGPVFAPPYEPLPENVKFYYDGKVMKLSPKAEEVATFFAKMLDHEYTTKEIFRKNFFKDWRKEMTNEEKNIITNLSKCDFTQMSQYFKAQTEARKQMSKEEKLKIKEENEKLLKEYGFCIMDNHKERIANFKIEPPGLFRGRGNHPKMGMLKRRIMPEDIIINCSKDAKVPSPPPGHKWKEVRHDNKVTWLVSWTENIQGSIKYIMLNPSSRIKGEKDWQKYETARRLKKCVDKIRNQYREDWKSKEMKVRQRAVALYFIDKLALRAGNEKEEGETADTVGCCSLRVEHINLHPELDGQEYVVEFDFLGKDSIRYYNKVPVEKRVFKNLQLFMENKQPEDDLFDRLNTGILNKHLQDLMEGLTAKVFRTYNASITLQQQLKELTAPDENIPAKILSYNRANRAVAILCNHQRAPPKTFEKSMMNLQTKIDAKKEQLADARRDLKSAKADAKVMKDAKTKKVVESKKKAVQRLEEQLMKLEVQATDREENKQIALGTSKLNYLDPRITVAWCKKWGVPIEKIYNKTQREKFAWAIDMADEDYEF

[3] = Systemic delivery of irinotecan and SN-38 after GRDS tablet versus i.v. in the beagle dog; details: irinotecan in gastric retention dosage form, oral
Experimental: A plot of plasma concentration against time allows calculation of the area under the curves and the relative bioavailability of the various forms of the drug.
Prior to the study, an adequate amount (5-10 ml) of whole blood is drawn from each dog. The blood is used to prepare the standard calibration reference curve. At the study, the foreleg (right or left, as deemed appropriate by the animal handler), is shaved using an electric shaver, and the area cleansed with a chlorhexidine swab. A permanent in-dwelling polyethylene catheter is inserted using a 23 gauge needle in the cephalic vein in the foreleg of each dog and taped in place to allow for periodic blood sampling over 12 hours. […]
At each time point, 2.0 ml blood is removed by syringe and then placed into a pre-labeled heparinized test tube. […] The concentration of the components are measured using literature HPLC methods.
The dogs are fasted overnight for a period of at least 12 hours at which time they receive a single mixed meal of solid food and liquid nutrients. 250 grams of bite-size commercial dog chow (Bonzo Feed®) are measured and placed in a feeding dish. […] The food remaining in the dish is measured and the difference from the original 250 grams is recorded as the amount of food consumed. […]
Two hours after the meal, the dog is dosed with the test tablet. […] The methanol samples are analyzed by HPLC. […]

bioavailability [1]: 12%
Compound: CCc1c2c(nc3ccc(OC(=O)N4CCC(N5CCCCC5)CC4)cc13)-c1cc3c(c(=O)n1C2)COC(=O)[C@]3(O)CC [Irinotecan]

Compound: CCc1c2c(nc3ccc(O)cc13)-c1cc3c(c(=O)n1C2)COC(=O)[C@]3(O)CC [SN-38, 7-ethyl-10-hydroxycamptothecin]
[formula] ratio of lactone AUC to total AUC, intravenous ([2]; irinotecan given intravenously): 0.50
[formula] overall delivery to the bloodstream, total AUC oral relative to intravenous ([2]; irinotecan given orally, conventional non-gastric retention, vs IV, lactone + carboxylate): 0.16
[formula] ratio absorbed in the lactone form (lactone AUC / total AUC), oral ([2]; irinotecan given orally, conventional non-gastric retention): 0.73
Potency as inhibitor of topoisomerase I relative to irinotecan (topoisomerase I): approximately a thousand times more potent
Ratio absorbed in the lactone form [formula] [3]: 0.9
Overall delivery to the bloodstream [formula], gastric retention relative to intravenous ([3]; vs IV): 0.4
